Measured values from patent publication US5958966A, “Treatment of aberrant cellular states with biomodulators” (University of New Mexico, priority 1995, dated 1999).
Entries after “also recorded” stand apart in the source; their conditions may differ.

Experiments:
canine glioma cells = test: canine glioma tumor inhibition in nude rats (Formula II compound); format: in vivo, nude rat
Method: Fifty four nude rats (Harlan) were injected in the right flank with 5×10^6 canine glioma cells. Animals at the time of injection were between 52 and 63 days old and weighed approximately 200 g. The rats were divided into 7 groups, each group having a total number of 7 rats except for the control group, which totalled 12 animals. Compound IIc' was administered to the experimental animals at one of the following doses for each experimental group: 100 μg/kg, 10 μg/kg, 1 μg/kg, 0.1 μg/kg, 0.01 μg/kg and 0.001 μg/kg (phosphate buffer saline, M, W, F, I.P.). The control animals were injected with PBS (phosphate buffered saline) only. The volume of each injection was 100 μl. The injections of drug were simultaneously begun with injection of tumor cells. The animals were injected with the appropriate dosage of drug (1 ng/kg to […]) by I. P. injection and tumor length, width and depth were measured using caliphers each Monday, Wednesday and Friday (M, W, F) morning for approximately 9 weeks. Each point on the graphs represents the total of all rats for each group. […] The data were normalized for the greater number of control animals by multiplying the total tumor volume for the control animals by 7/12.

anti-CG IgG antibodies = test: tumor-specific (anti-CG) antibody production in a dog; format: in vivo
canine glioma (CG) cells = test: chromium-release cell-mediated lympholysis (CML) vs. CG tumor in a dog; format: in vivo; details: for CG-specific CML in words: dog
Excerpt: Cellular immune response reflected the results reported in III, 1 above. […] This also is in the absence of CG antigen exposure. […] Thus, both cellular and humoral immunity appear to be modulatable in the absence of antigen by the compounds of the instant invention.

[1] = system: human peripheral blood leukocytes (HPBL); test: stimulation / inhibition of IgG production in HPBL; format: cell-based; details: HPBL
Method: Human peripheral blood leukocytes were cultured in a standard tissue culture medium. Aliquots of these cultured cells (1,000,000 cells/ml medium) were cultured for 6 hours, and the specified amount of Formula II compound was added; the cells were then cultured for an additional 90 hours. Sheep red blood cells (SRBC) conditioned with class-specific (IpG) goat anti-human antiserum (1:400) for 2 hours; then guinea pig complement (2%) for 2 hours were conjugated to Protein A as described in detail in Radioimmunoimaging and Radioimmunotherapy, Eds. S. W. Burchiel and B. A. Rhodes, Elsevier Science Publishing; New York, 1983, pp. 125-127, incorporated herein by reference.

CC(C)OC(=O)C[C@H](O)C[C@@H](O)/C=C/c1c(C(C)C)nc(-c2ccccc2)n1-c1ccc(F)cc1 [Compound IIc']
cytostatic activity at other doses (canine glioma cells; 10 and 100 μg/kg or 1 ng/kg): Little or no cytostatic activity | most effective dosage for inhibition (canine glioma cells; nude rats, I.P., M, W, F): 100 ng/kg | CG-specific antibody titer in words (anti-CG IgG antibodies): titers of antibody increased over the control antibody titer significantly; also recorded: CG-specific antibody (IgG) production increased significantly; also recorded: rapidly (within a few days) reverted to baseline control levels | slope M of linear regression of toxicity (canine glioma (CG) cells; December 14, 1987): 0.05 | slope M of linear regression of toxicity (canine glioma (CG) cells; February 9, 1988): 0.35 | slope M of linear regression of toxicity (canine glioma (CG) cells; February 17, 1988): 0.75 | slope M of linear regression of toxicity (canine glioma (CG) cells; March 31, 1988): 0.05 | CG-specific CML in words (canine glioma (CG) cells): significant increase in CML; also recorded: large increase in the CML reactivity; also recorded: CML reactivity again returned to baseline | CG-specific CML in words (canine glioma (CG) cells; listed as IIIc'): only baseline levels of CG-specific CML were present | IgG production in words [1]: stimulated IgG production | Inhibitory Concentration (nonspecific IgG production below normal) [1]: none found | optimal dose in vitro ([1]; immune stimulation): 100 pM
